Source: US20230181535A1, “UBIQUITIN-LIGASE INHIBITORS FOR THE TREATMENT OF CANCER” (FUNDACIÓN PROFESOR NOVOA SANTOS, priority 2020, published 2023)

Test system: HT-29 cells
Test: Western blotting of EMT markers, HT-29
Assay type: cell-based, human
Conditions: HT-29; 48 h
Method: For western blot analysis, cells were treated with the indicated inhibitors for 48 h and the whole cell extracts were obtained as described previously. Twenty micrograms of lysates were resolved on a 10% polyacrilamide SDS-PAGE followed by western blot analysis performed as previously described. For immunofluorescence assays cells were grown for 24 h on glass coverslips and treated with the indicated inhibitors for 48 h. Cells were fixed with 4% PFA for 15 min, permeabilized with 0.5% […] and incubated with E-cadherin antibody for 2 h. Coverslips were incubated with fluorescein-tagged secondary antibody (Dakopatts, Sweden) for […]. Finally coverslips were mounted with ProLong Gold antifade reagent (LifeTech, UK) and images were taken in epifluorescence microscope (Olympus) using 40× objective. Immunofluorescence of E-cadherin and DNA content analysis for FIGS. 22-23 were performed culturing of HT-29 human colorectal adenocarcinoma cell line in 384-well plates with densities of 3,000 cells per well in a total volume of 25 μl. After the completion of the staining, four images (2×2 array) of each well were taken with Vala Sciences' SIM™ with a 20× objective. Each image was acquired as a SIM Synthetic Focus with a z-stack range of 6 μm with 1 μm steps. The SIM Synthetic Focus feature will compile a “best focus” images from multiple images. One set of SIM Synthetic Focus images were taken in the DAPI channel for Hoechst 33342 staining, and another set of images were taken in the FITC channel for anti-E-cadherin-AlexaFluor488 labeling and analysed by Structured Illumination Microscopy (SIM™) platform to image the cells and Vala's CyteSeer® Cell-Cell Junction Algorithm to quantify the degree of expression and intracellular location of E-cadherin Vala's CyteSeer® Software can also measure relative DNA content by analyzing Total Integrated Intensity (TII) of the Nuclear Image (Ni) on the Nuclear Mask (Nm). This analysis was performed by Vala Science. Twenty compounds from were assayed in a “blinded” manner, at 2 test concentrations in 6 replicate wells for first assay and 3 replicate for second assay.

SMILES: O=C(O)c1ccc(-n2nnnc2SCC(=O)c2ccc([N+](=O)[O-])cc2)cc1 [Hakin-1, 4-(5-[2-(4-nitrophenyl)-2-oxoethyl]thiol-1H-tetrazol-1-yl)benzoic acid]
- Cortactin expression levels (western blotting): increase expression levels
- E-cadherin levels (western blotting): increase E-cadherin levels
- Vimentin mesenchymal marker (western blotting): reduced
